Read-outs that look alike come from different tables or passages of the source.
Key:
Assay type in all cases: biochemical
[1] = target: Pim-1 (Homo sapiens (Human), UniProt P11309); test: Pim-1 kinase assay; conditions: 1 mM ATP; class symbols; read-out: Pim1 IC50
Experimental: Supplementation of the STOP buffer with beads and stopping the reactions were done under reduced light. Prior to the stopping reactions STOP buffer with beads was pre-incubated for 1 h in the dark at room temperature. After stopping the reactions, plates were incubated for 1 h in the dark at room temperature before reading on a PHERAstar FS plate reader (BMG Labtech) under reduced light.

[2] = target: Pim-2 (Homo sapiens (Human), UniProt Q9P1W9); test: Pim-2 kinase assay
Experimental: Pim-2 kinase assay—20 μL reactions were run in white 384 well polystyrene plates dotted with 0.8 μL compound/DMSO in the assay buffer (50 mM Tris, pH 7.5, 0.01% Tween-20, 5 mM MgCl2, 0.01% BSA, 5 mM DTT), containing 0.05 μM Fluorescein-labeled CREBtide peptide substrate (Invitrogen PV3508), 1 mM ATP, and 1 nM enzyme (Invitrogen PV3649) for 2 h at 25° C. Reactions were stopped by addition of 10 μL TR-FRET Dilution Buffer (Invitrogen PV3574) with 30 mM EDTA and 1.5 nM LanthaScreen Tb-CREB pSer133 antibody (Invitrogen PV3566). After 30 min. incubation at room temperature, plates were read on a PHERAstar FS plate reader (BMG Labtech).
Although the above in vitro assays are conducted at 1 mM ATP compounds can also be evaluated for potency and in vitro activity against PIM targets utilizing Km conditions, where the concentration of ATP is set to the Km value and the assay is more sensitive to PIM inhibition activity.

[3] = target: Pim-3 (Homo sapiens (Human), UniProt Q86V86); test: Pim-3 kinase assay; conditions: 1 mM ATP; class symbols; read-out: Pim3 IC50
Experimental: Pim-1 and Pim-3 kinase assays—20 μL reactions were run in white 384 well polystyrene plates dotted with […] in the assay buffer (50 mM Tris, pH 7.5, 0.01% Tween-20, 5 mM MgCl2, 0.01% BSA, 5 mM DTT), containing 0.05 μM Biotin-labeled BAD peptide substrate (AnaSpec 62269), 1 mM ATP, and 2.5 pM (Pim-1, Invitrogen PV3503) or 1.25 pM (Pim-3, Millipore 14-738) enzyme for 1 h at 25° C. Reactions were stopped by addition of 10 μL STOP Buffer (150 mM Tris, pH=7.5, 150 mM NaCl, 75 mM EDTA, 0.01% Tween-20, 0.3% BSA) supplemented with Phospho-Bad (Ser112) Antibody (Cell Signaling 9291) diluted 666-fold, and Streptavidin donor beads (PerkinElmer 6760002) along with Protein-A acceptor beads (PerkinElmer 6760137) at 15 μg/mL each. Supplementation of the STOP buffer with beads and stopping the reactions were done under reduced light. Prior to the stopping reactions STOP buffer with beads was pre-incubated for 1 h in the dark at room temperature. After stopping the reactions, plates were incubated for 1 h in the dark at room temperature before reading on a PHERAstar FS plate reader (BMG Labtech) under reduced light.

Sequence of Pim-2 (Q9P1W9 whole entry): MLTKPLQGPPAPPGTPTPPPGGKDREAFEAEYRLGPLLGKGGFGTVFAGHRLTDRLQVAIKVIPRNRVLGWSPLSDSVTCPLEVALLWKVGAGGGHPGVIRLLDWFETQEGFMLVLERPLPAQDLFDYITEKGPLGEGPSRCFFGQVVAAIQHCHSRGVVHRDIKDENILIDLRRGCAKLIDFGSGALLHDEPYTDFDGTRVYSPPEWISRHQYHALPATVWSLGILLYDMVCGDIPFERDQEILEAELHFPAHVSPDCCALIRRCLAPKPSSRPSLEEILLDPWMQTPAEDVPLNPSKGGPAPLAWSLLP
Sequence of Pim-1 (P11309 whole entry): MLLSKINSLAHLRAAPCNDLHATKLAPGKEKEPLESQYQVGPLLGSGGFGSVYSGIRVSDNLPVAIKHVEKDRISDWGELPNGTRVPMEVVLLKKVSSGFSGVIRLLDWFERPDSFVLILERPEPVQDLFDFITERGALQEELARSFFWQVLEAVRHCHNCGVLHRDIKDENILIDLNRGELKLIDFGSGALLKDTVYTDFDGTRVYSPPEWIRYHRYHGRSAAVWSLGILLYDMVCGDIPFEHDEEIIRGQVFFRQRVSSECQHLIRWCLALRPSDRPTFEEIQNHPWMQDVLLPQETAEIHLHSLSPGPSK

IC50 ([2]; Km ATP concentration rather than 1 mM, read-out: Pim2 IC50 at Km ATP concentration) [nM]	Structure (SMILES)	IC50 [1] [nM]	IC50 ([2]; 1 mM ATP, class symbols, read-out: Pim2 IC50) [nM]	IC50 [3] [nM]
	C[C@H]1CN(c2c(NC(=O)c3ccc(F)c(-c4c(F)cccc4F)n3)cnc3c2CCC3O)C[C@@H](N)[C@@H]1O (mixture of isomers) [Example 37 (mixture of diastereoisomers), N-{4-[(3R,4R,5S)-3-Amino-4-hydroxy-5-methylpiperidin-1-yl]-7-hydroxy-6,7-dihydro-5H-cyclopenta[b]pyridin-3-yl}-6-(2,6-difluorophenyl)-5-fluoropyridine-2-carboxamide]	≤ 100	≤ 100	≤ 100
100 to 1000	N[C@H]1CCCN(c2c(NC(=O)c3csc(-c4c(F)cccc4F)n3)cnc3ccccc23)C1 [Example 2, N-{4-[(3S)-3-Aminopiperidin-1-yl]quinolin-3-yl}-2-(2,6-difluorophenyl)-1,3-thiazole-4-carboxamide]			

Source: US10828290B2, “Thiazolecarboxamides and pyridinecarboxamide compounds useful as pim kinase inhibitors” (Incyte Corporation, priority 2013, dated 2020)
